The values below come from US7700559B2, “Gonadotropin releasing hormone analogues conjugates with steroid hormones” (Medical Research Council, priority 2003, dated 2010).

pEC50, pIC50: −log10 of the molar value.

Data set [1] concerns the target T1, type I human GnRH receptor (Homo sapiens, UniProt P30968).
T1 construct: expressed in transfected cells; host or cells: COS-1 cells (membranes)
T1 sequence (P30968 1-328): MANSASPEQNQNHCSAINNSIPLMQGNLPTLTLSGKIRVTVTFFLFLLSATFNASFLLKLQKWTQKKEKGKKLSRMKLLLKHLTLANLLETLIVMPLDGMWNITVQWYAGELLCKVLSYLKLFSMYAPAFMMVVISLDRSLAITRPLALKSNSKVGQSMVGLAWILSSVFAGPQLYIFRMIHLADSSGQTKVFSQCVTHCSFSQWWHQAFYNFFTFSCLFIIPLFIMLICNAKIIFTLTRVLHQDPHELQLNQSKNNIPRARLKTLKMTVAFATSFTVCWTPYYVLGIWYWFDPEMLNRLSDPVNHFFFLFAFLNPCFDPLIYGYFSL
The data set is described as follows: Membrane binding assay of GnRH agonist-progesterone conjugate, COS-1 cells transfected with hGnRH-R, 125I[His5,D-Tyr6]GnRH. Particulars: n=1, data not shown, read-out: ED50, binding to type I human GnRH receptor. On the procedure: Membrane binding assay of GnRH agonist-progesterone conjugates was carried out on COS-1 cells transfected with hGnRH-R. COS-1 cells in 100 mm dishes were washed twice in HEPES modified DMEM and transfected with 15 μg DNA in filter-sterilised DEAE dextran with HEPES buffered saline, penicillin/streptomycin and DMEM. After five hours incubation at 37° C., the media was removed and replaced with DMEM containing penicillin/streptomycin, 2% FCS and 2% chloroquine 10 mM and plates were incubated for a further one hour. The media was aspirated, cells were washed and normal media was added until assay 24 hours later.
Membrane Binding Assay of GnRH agonist-Progesterone Conjugate:
Transfected COS-1 cells were washed in PBS, removed from plates and centrifuged at 1500 rpm for five mins to pellet cells. The PBS was aspirated and the cells were resuspended in homogenization buffer (20 mM Tris, 2 mM MgCl2, pH 7.2), vortexed and left on ice for 10 minutes. The cell suspension was transferred to a 7 ml homogeniser (Jencons (Scientific) Ltd., Leighton Buzzard, Buckinghamshire) and plunged 15 times with a loose plunger and 15 times with a tight plunger. The homogenized cells were then centrifuged at 4° C. for 10 mins at top speed and the supernatant was removed with a vacuum pump. […] Filters were then counted immediately on a gamma counter.

Another data set has as its target T2, rat type I GnRHR (Rattus norvegicus, UniProt P30969).
T2 construct: expressed in transfected cells
T2 sequence (P30969 1-327): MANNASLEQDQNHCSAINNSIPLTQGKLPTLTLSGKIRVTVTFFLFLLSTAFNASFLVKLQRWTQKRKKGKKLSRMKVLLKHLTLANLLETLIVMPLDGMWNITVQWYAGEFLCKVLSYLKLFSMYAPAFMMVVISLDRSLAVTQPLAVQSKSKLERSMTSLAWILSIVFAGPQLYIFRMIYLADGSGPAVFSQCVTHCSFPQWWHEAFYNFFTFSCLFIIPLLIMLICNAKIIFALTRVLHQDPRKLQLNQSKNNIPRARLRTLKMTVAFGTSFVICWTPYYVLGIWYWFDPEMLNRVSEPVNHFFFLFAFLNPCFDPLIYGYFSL
Description: Total inositol phosphate production in HEK293 cells stably expressing rat type I GnRHR. In kind it is cell-based. Particulars: n=2, read-out: EC50, stimulation of inositol phosphate production. As for the experimental part: A HEK293 stable cell line expressing the rat type I GnRHR developed in our laboratory was used for the inositol phosphate production assays. This cell line was maintained in DMEM containing 10% fetal calf serum, glutamine and penicillin/streptomycin with the addition of G418 at 500 μg/ml throughout culture. Where required, plates were coated with Poly-L-Lysine to enhance adherence to plasticware during assay.
Measurement of Total Inositol Phosphate Production
Rat type I GnRH receptive expressing HEK293 cells were plated out onto 12 well plates and incubated at 37° C., 5% CO2 for 24 hours, then incubated in special DMEM containing 1% dialysed FCS (with glutamine and penicillin/streptomycin) and 1 μl/well of myo-[2-^3H]inositol for a further 48 hours. After aspiration of media and washing with incubation buffer, a further 500 μl buffer containing 10 mM LiCl was added to the plates and then incubated at 37° C. for 30 mins. 1 μM agonist was added to each well to a final concentration of 0.1 μM and the plates were incubated under the same conditions for a further 1 hour. The reaction was terminated with 500 μl 10 mM formic acid, incubated at 4° C. for 30 mins. […] After addition of formic acid, ammonium formate (1 ml, 0.1M, 1M) and vortexing, 800 μl of the supernatant was counted with scintillation fluid.

In data set [2] the target is progesterone binding globulin (PBG). Description: Plasma protein binding assay, competition with [3H]progesterone in pregnant guinea pig plasma. To be noted: read-out: IC50, inhibition of [3H]progesterone binding to PBG. As for the experimental part: (§1) Plasma Protein Binding Assay
(§2) Plasma protein binding was determined by the competitive binding of steroid conjugates, in the presence of [1,2,6,7-^3H]progesterone or [^3H]cortisol, to pregnant guinea pig plasma or human pregnant serum respectively. 20 μl serum was diluted with 2 ml dextran-coated charcoal solution (0.25 g dextran T-70, 2.5 g charcoal decolorizing powder, activated acid washed [Merck Ltd., Lutterworth, Leicestershire] in 500 ml PBS) and incubated at room temperature. After 30 mins the suspension was centrifuged at 3000×g for 10 minutes, the supernatant was removed and the pellet was discarded. 100 μl of diluted serum was aliquoted into centrifuge tubes, followed by 1 pmol[^3H]steroid/100 μl PBS. 100 μl PBS (total binding) or 200 pmol/100 μl unlabelled competing ligand ([…]) was added to diluted serum in duplicate. Tubes were vortexed and incubated at room temperature for 1 hour, then for an additional 15 minutes on ice. A further 750 μl dextran-coated charcoal suspension was added and incubated for 10 minutes on ice, followed by centrifugation at 4° C. for 5 minutes. The supernatant fluid was counted.

The target in data set [3] is T3, cortisol binding globulin (CBG) (Homo sapiens, UniProt P08185).
T3 construct: from tissue; host or cells: human pregnant serum (charcoal-stripped, diluted)
T3 sequence (P08185 23-405): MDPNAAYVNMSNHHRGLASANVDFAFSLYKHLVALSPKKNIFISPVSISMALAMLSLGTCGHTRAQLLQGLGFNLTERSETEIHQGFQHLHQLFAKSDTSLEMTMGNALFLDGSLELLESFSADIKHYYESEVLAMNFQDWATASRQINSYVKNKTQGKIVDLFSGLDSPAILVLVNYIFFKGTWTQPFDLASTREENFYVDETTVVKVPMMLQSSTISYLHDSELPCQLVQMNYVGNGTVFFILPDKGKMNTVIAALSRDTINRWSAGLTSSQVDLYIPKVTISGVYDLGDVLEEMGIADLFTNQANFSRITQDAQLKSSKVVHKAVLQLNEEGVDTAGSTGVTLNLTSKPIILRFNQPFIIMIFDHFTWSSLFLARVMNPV
The data set is described as follows: Plasma protein binding assay, competition with [3H]cortisol in human pregnant serum. To be noted: data not shown, read-out: IC50, prevention of [3H]cortisol binding. As for the experimental part: as §1, §2

Data set [4] can be described thus: In vivo male rabbit study, disappearance of iodinated analogue from whole blood. Particulars: iodinated compound i.v. into ear vein, male rabbit, whole blood. On the procedure: In Vivo Studies in the Male Rabbit
To determine biological half-life of GnRH agonist-progesterone conjugates, 0.5 ml saline containing approximately 10,000,000 cpm of iodinated [D-Ala^6]GnRH or [D-Lys^6]GnRH-progesterone conjugate was injected as an i.v. bolus into the ear vein of a male rabbit. Rabbits were sedated with 0.4 ml Aceprom 10 (Milborrow Animal Health, Republic of South Africa) injected intramuscularly 3-4 minutes before start of experiment. A repeat injection was carried out after 2 hours. 1 ml blood samples were collected in heparinized tubes from an indwelling cannula placed in a vein of the contralateral ear. Whole blood was counted directly to determine disappearance from circulation. All experiments were carried out in accordance with Republic of South Africa regulations.

What is called pIC50 is the negative decadic logarithm of the IC50, by convention in mol/L. Turning to `CC(=O)[C@H]1CC[C@H]2[C@@H]3CCC4=CC(=O)CC[C@]4(C)[C@H]3[C@H](OC(=O)CCC(=O)NCCCC[C@@H](NC(=O)[C@H](Cc3ccc(O)cc3)NC(=O)[C@H](CO)NC(=O)[C@H](Cc3c[nH]c4ccccc34)NC(=O)[C@H](Cc3c[nH]cn3)NC(=O)[C@@H]3CCC(=O)N3)C(=O)N[C@@H](CC(C)C)C(=O)N[C@@H](CCCNC(=N)N)C(=O)N3CCC[C@H]3C(=O)NCC(N)=O)C[C@]12C` [GnRH agonist-progesterone conjugate, [DLys^6]GnRH conjugated to 11α-hydroxyprogesterone 11-succinate at the ε amine group of the D-Lys at position 6], the pEC50 was 9.54 in data set [1] and 9.28 on rat type I GnRHR. In addition, the pIC50 is 9.54 in data set [2] and 5.92 in data set [3]. In addition, the “second phase half-life (metabolism and renal clearance)” value in data set [4] was 53 ± 13 min.
